pKi: −log10 of the molar value.
Experiments:
[1] = biological target: T1, human MR (mineralocorticoid receptor) (Homo sapiens, UniProt P08235); assay: Steroid hormone nuclear receptor binding assay, MR; conditions: HEK293 lysate overexpressing human MR, [3H]-aldosterone
T1 construct: expressed in transfected cells; host or cells: HEK293 (lysate, 293-MR)
T1 sequence (P08235 1-984): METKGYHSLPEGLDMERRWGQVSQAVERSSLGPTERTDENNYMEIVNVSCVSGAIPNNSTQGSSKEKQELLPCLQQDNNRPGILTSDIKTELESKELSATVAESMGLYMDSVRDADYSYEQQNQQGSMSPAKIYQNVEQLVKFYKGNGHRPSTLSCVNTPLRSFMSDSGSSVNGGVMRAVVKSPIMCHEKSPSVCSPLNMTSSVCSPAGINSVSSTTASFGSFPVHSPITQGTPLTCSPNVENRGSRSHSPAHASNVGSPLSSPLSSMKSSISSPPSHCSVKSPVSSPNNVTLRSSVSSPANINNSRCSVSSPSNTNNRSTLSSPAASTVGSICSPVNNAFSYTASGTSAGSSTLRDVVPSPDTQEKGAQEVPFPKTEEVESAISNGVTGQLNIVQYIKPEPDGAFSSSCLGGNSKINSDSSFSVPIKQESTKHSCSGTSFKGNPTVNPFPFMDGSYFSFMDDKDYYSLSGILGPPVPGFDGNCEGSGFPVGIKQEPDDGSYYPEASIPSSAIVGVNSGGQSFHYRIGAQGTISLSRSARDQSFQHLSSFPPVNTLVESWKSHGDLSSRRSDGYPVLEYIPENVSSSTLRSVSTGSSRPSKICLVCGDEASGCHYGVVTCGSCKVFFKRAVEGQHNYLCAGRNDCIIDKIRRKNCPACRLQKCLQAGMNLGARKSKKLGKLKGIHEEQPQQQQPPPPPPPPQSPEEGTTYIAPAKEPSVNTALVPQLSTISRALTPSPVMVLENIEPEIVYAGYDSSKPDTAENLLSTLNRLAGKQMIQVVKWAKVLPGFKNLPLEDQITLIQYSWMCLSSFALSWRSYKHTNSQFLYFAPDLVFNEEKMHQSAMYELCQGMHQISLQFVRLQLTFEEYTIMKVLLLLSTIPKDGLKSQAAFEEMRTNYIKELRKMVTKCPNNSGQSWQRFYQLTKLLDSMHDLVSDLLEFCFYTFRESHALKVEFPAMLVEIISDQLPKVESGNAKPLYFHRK
Protocol: (§1) Cell lysates from human embryonic kidney HEK293 cells overexpressing human MR (mineralocorticoid receptor), GR (glucocorticoid receptor), AR (androgen receptor), or PR (progesterone receptor) are used for receptor-ligand competition binding assays to determine Ki values. Typical procedures are provided below
(§2) Briefly, steroid receptor competition binding assays are run in a buffer containing 20 mM HEPES buffer (pH=7.6), 0.2 mM EDTA, 75 mM NaCl, 1.5 mM MgCl2, 20% glycerol, 20 mM sodium molybdate, 0.2 mM DTT (dithiothreitol), 20 μg/mL aprotinin and 20 μg/mL leupeptin (assay buffer). Typically, steroid receptor binding assays include radio-labeled ligands, such as 0.25 nM [^3H]-aldosterone for MR binding, 0.3 nM [^3H]-dexamethasone for GR binding, 0.36 nM [^3H]-methyltrienolone for AR binding, and 0.29 nM [^3H]-methyltrienolone for PR binding, and either 20 μg 293-MR lysate, 20 μg 293-GR lysate, 22 μg 293-AR lysate, or 40 μg 293-PR lysate per well. Assays are typically run in 96-well format. Competing test compounds are added at various concentrations ranging from about 0.01 nM to 10 μM. Non-specific binding is determined in the presence of 500 nM aldosterone for MR binding, 500 nM dexamethasone for GR binding, or 500 nM methyltrienolone for AR and PR binding. […] After an incubation of 2 hours, plates are read in a Wallac Microbeta counter. […]

[2] = biological target: T2, human GR (glucocorticoid receptor) (Homo sapiens, UniProt P04150); assay: Steroid hormone nuclear receptor binding assay, GR; conditions: HEK293 lysate overexpressing human GR, [3H]-dexamethasone
T2 construct: expressed in transfected cells; host or cells: HEK293 (lysate, 293-GR)
T2 sequence (P04150 1-777): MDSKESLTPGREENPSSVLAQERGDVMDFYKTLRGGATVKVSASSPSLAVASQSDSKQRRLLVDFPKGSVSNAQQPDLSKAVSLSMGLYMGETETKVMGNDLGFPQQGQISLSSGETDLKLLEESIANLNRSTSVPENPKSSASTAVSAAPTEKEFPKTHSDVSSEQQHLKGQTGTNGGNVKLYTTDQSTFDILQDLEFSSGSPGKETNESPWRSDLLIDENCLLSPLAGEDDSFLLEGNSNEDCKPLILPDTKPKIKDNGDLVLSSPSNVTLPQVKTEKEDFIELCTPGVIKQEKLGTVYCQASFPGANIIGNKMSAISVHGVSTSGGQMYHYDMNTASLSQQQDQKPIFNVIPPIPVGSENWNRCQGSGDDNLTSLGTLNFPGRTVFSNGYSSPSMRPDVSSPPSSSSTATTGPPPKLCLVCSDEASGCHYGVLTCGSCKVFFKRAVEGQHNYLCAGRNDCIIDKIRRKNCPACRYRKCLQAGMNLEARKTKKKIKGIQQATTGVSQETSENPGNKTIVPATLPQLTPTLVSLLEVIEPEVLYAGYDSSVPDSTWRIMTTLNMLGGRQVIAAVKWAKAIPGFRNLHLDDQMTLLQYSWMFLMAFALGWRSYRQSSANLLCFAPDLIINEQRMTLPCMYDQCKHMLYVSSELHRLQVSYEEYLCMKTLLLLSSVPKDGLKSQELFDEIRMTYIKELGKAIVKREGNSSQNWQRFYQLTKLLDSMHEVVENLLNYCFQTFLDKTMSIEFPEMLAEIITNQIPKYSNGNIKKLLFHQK
Protocol: as §1, §2

Structure (SMILES): CC(C)OC(=O)N[C@H]1Cc2c(n(C[C@H]3OCC[C@@H]3O)c3ccc(C#N)cc23)C1 [compound of Formula (I), [(S)-7-Cyano-4-((2R,3S)-3-hydroxytetrahydrofuran-2-ylmethyl)-1,2,3,4-tetrahydrocyclopenta[b]indol-2-yl]-carbamic acid isopropyl ester]
- pKi [1]: < 5.40
- pKi [2]: < 5.70

Source: patent publication US8183388B2, “Androgen receptor modulator and uses thereof” (Eli Lilly and Company, priority 2009, dated 2012)
